ChEMBL document CHEMBL3046635, “Synthesis and Herbicidal Activity of New Pyrazole-4-carboxamide Derivatives” (J Pestic Sci, 2004)
Calls of active or inactive are those of the source.

How the values were obtained:
Eleocharis acicularis [1] = experiment: Pre-emergence herbicidal activity against Eleocharis acicularis at 100 g a.i/ha measured after 14 days; type: functional, organism-based
Oryza sativa [2] = experiment: Phytotoxicity against Oryza sativa cv. Koshihikari (rice) at 100 g a.i/ha measured after 14 days; type: organism-based; conditions: in vivo, 336 h
[3] = system: Schoenoplectiella juncoides; experiment: Pre-emergence herbicidal activity against Schoenoplectiella juncoides at 100 g a.i/ha measured after 14 days; type: functional, organism-based
Pontederia vaginalis [4] = experiment: Pre-emergence herbicidal activity against Monochoria vaginalis at 100 g a.i/ha measured after 14 days; type: functional, organism-based
Ammannia multiflora [5] = experiment: Pre-emergence herbicidal activity against Ammannia multiflora at 100 g a.i/ha measured after 14 days; type: functional, organism-based
Rotala indica [6] = experiment: Pre-emergence herbicidal activity against Rotala indica at 100 g a.i/ha measured after 14 days; type: functional, organism-based
Elatine triandra [7] = experiment: Pre-emergence herbicidal activity against Elatine triandra at 100 g a.i/ha measured after 14 days; type: functional, organism-based
Lindernia procumbens [8] = experiment: Pre-emergence herbicidal activity against Lindernia procumbens at 100 g a.i/ha measured after 14 days; type: functional, organism-based
Cyperus difformis [9] = experiment: Pre-emergence herbicidal activity against Cyperus difformis at 100 g a.i/ha measured after 14 days; type: functional, organism-based
Echinochloa oryzicola [10] = experiment: Pre-emergence herbicidal activity against Echinochloa oryzicola at 100 g a.i/ha measured after 14 days; type: functional, organism-based
Oryza sativa [11] = experiment: Phytotoxicity against Oryza sativa cv. Koshihikari (rice) at 500 g a.i/ha measured after 14 days; type: organism-based; conditions: in vivo, 336 h
Eleocharis acicularis [12] = experiment: Pre-emergence herbicidal activity against Eleocharis acicularis at 500 g a.i/ha measured after 14 days; type: functional, organism-based
Pontederia vaginalis [13] = experiment: Pre-emergence herbicidal activity against Monochoria vaginalis at 500 g a.i/ha measured after 14 days; type: functional, organism-based
[14] = system: Schoenoplectiella juncoides; experiment: Pre-emergence herbicidal activity against Schoenoplectiella juncoides at 500 g a.i/ha measured after 14 days; type: functional, organism-based
Ammannia multiflora [15] = experiment: Pre-emergence herbicidal activity against Ammannia multiflora at 500 g a.i/ha measured after 14 days; type: functional, organism-based
Elatine triandra [16] = experiment: Pre-emergence herbicidal activity against Elatine triandra at 500 g a.i/ha measured after 14 days; type: functional, organism-based
Rotala indica [17] = experiment: Pre-emergence herbicidal activity against Rotala indica at 500 g a.i/ha measured after 14 days; type: functional, organism-based
Lindernia procumbens [18] = experiment: Pre-emergence herbicidal activity against Lindernia procumbens at 500 g a.i/ha measured after 14 days; type: functional, organism-based
Echinochloa oryzicola [19] = experiment: Pre-emergence herbicidal activity against Echinochloa oryzicola at 500 g a.i/ha measured after 14 days; type: functional, organism-based
Cyperus difformis [20] = experiment: Pre-emergence herbicidal activity against Cyperus difformis at 500 g a.i/ha measured after 14 days; type: functional, organism-based
Eleocharis acicularis [21] = experiment: Post-emergence herbicidal activity against Eleocharis acicularis assessed as bleaching of stem/leaf parts; type: functional, organism-based; note: test concentration or dose not given here
Eleocharis acicularis [22] = experiment: Pre-emergence herbicidal activity against Eleocharis acicularis assessed as bleaching of stem/leaf parts; type: functional, organism-based
Ammannia multiflora [23] = experiment: Pre-emergence herbicidal activity against Ammannia multiflora assessed as bleaching of stem/leaf parts; type: functional, organism-based
Rotala indica [24] = experiment: Pre-emergence herbicidal activity against Rotala indica assessed as bleaching of stem/leaf parts; type: functional, organism-based
Elatine triandra [25] = experiment: Pre-emergence herbicidal activity against Elatine triandra assessed as bleaching of stem/leaf parts; type: functional, organism-based
Lindernia procumbens [26] = experiment: Pre-emergence herbicidal activity against Lindernia procumbens assessed as bleaching of stem/leaf parts; type: functional, organism-based
[27] = system: Schoenoplectiella juncoides; experiment: Pre-emergence herbicidal activity against Schoenoplectiella juncoides assessed as bleaching of stem/leaf parts; type: functional, organism-based
Pontederia vaginalis [28] = experiment: Pre-emergence herbicidal activity against Monochoria vaginalis assessed as bleaching of stem/leaf parts; type: functional, organism-based
Cyperus difformis [29] = experiment: Pre-emergence herbicidal activity against Cyperus difformis assessed as bleaching of stem/leaf parts; type: functional, organism-based
Echinochloa oryzicola [30] = experiment: Pre-emergence herbicidal activity against Echinochloa oryzicola assessed as bleaching of stem/leaf parts; type: functional, organism-based
Ammannia multiflora [31] = experiment: Post-emergence herbicidal activity against Ammannia multiflora assessed as bleaching of stem/leaf parts; type: functional, organism-based; note: test concentration or dose not given here
Elatine triandra [32] = experiment: Post-emergence herbicidal activity against Elatine triandra assessed as bleaching of stem/leaf parts; type: functional, organism-based; note: test concentration or dose not given here
Rotala indica [33] = experiment: Post-emergence herbicidal activity against Rotala indica assessed as bleaching of stem/leaf parts; type: functional, organism-based; note: test concentration or dose not given here
[34] = system: Schoenoplectiella juncoides; experiment: Post-emergence herbicidal activity against Schoenoplectiella juncoides assessed as bleaching of stem/leaf parts; type: functional, organism-based; note: test concentration or dose not given here
Lindernia procumbens [35] = experiment: Post-emergence herbicidal activity against Lindernia procumbens assessed as bleaching of stem/leaf parts; type: functional, organism-based; note: test concentration or dose not given here
Pontederia vaginalis [36] = experiment: Post-emergence herbicidal activity against Monochoria vaginalis assessed as bleaching of stem/leaf parts; type: functional, organism-based; note: test concentration or dose not given here
Cyperus difformis [37] = experiment: Post-emergence herbicidal activity against Cyperus difformis assessed as bleaching of stem/leaf parts; type: functional, organism-based; note: test concentration or dose not given here
Echinochloa oryzicola [38] = experiment: Post-emergence herbicidal activity against Echinochloa oryzicola assessed as bleaching of stem/leaf parts; type: functional, organism-based; note: test concentration or dose not given here

Compound | Activity (Eleocharis acicularis [1]) | Activity (Oryza sativa [2]) | Activity [3] | Activity (Pontederia vaginalis [4]) | Activity (Ammannia multiflora [5]) | Activity (Rotala indica [6]) | Activity (Elatine triandra [7]) | Activity (Lindernia procumbens [8]) | Activity (Cyperus difformis [9]) | Activity (Echinochloa oryzicola [10]) | Activity (Oryza sativa [11]) | Activity (Eleocharis acicularis [12]) | Activity (Pontederia vaginalis [13]) | Activity [14] | Activity (Ammannia multiflora [15]) | Activity (Elatine triandra [16]) | Activity (Rotala indica [17]) | Activity (Lindernia procumbens [18]) | Activity (Echinochloa oryzicola [19]) | Activity (Cyperus difformis [20]) | further results
Cn1cc(C(=O)Nc2ccc(Cl)cc2Cl)c(OCc2cccc(C(F)(F)F)c2)n1 | Active | Non-toxic | inactive | Active | Active | Active | Active | Active | Active | inactive | Toxic | Active | Active | Active | Active | Active | Active | Active | Active | Active | Activity (Eleocharis acicularis [21]): Active; Activity (Eleocharis acicularis [22]): Active; Activity (Ammannia multiflora [23]): Active; Activity (Rotala indica [24]): Active; Activity (Elatine triandra [25]): Active; Activity (Lindernia procumbens [26]): Active; Activity [27]: Active; Activity (Pontederia vaginalis [28]): Active; Activity (Cyperus difformis [29]): Active; Activity (Echinochloa oryzicola [30]): Active; Activity (Ammannia multiflora [31]): Active; Activity (Elatine triandra [32]): Active; Activity (Rotala indica [33]): Active; Activity [34]: Active; Activity (Lindernia procumbens [35]): Active; Activity (Pontederia vaginalis [36]): Active; Activity (Cyperus difformis [37]): Active; Activity (Echinochloa oryzicola [38]): Active
CCCONC(=O)c1cn(C)nc1OCc1cccc(C(F)(F)F)c1 | Active | Non-toxic | Active | Active | Active | Active | Active | Active | Active | Active | Toxic | Active | Active | Active | Active | Active | Active | Active | Active | Active | Activity (Eleocharis acicularis [21]): Active; Activity (Eleocharis acicularis [22]): Active; Activity (Ammannia multiflora [23]): Active; Activity (Rotala indica [24]): Active; Activity (Elatine triandra [25]): Active; Activity (Lindernia procumbens [26]): Active; Activity [27]: Active; Activity (Pontederia vaginalis [28]): Active; Activity (Cyperus difformis [29]): Active; Activity (Echinochloa oryzicola [30]): Active; Activity (Ammannia multiflora [31]): Active; Activity (Elatine triandra [32]): Active; Activity (Rotala indica [33]): Active; Activity [34]: Active; Activity (Lindernia procumbens [35]): Active; Activity (Pontederia vaginalis [36]): Active; Activity (Cyperus difformis [37]): Active; Activity (Echinochloa oryzicola [38]): Active
Cn1cc(C(=O)NOc2ccc(Cl)cc2Cl)c(OCc2cccc(C(F)(F)F)c2)n1 | Active | Non-toxic | inactive | Active | Active | Active | Active | Active | Active | Active | Non-toxic | Active | Active | Active | Active | Active | Active | Active | Active | Active | Activity (Eleocharis acicularis [21]): Active; Activity (Eleocharis acicularis [22]): Active; Activity (Ammannia multiflora [23]): Active; Activity (Rotala indica [24]): Active; Activity (Elatine triandra [25]): Active; Activity (Lindernia procumbens [26]): Active; Activity [27]: Active; Activity (Pontederia vaginalis [28]): Active; Activity (Cyperus difformis [29]): Active; Activity (Echinochloa oryzicola [30]): Active; Activity (Ammannia multiflora [31]): Active; Activity (Elatine triandra [32]): Active; Activity (Rotala indica [33]): Active; Activity [34]: Active; Activity (Lindernia procumbens [35]): Active; Activity (Pontederia vaginalis [36]): Active; Activity (Cyperus difformis [37]): Active; Activity (Echinochloa oryzicola [38]): Active
